Assay results taken from ChEMBL document CHEMBL1145080, “Synthesis and cyclooxygenase-2 inhibiting property of 1,5-diarylpyrazoles with substituted benzenesulfonamide moiety as pharmacophore: Preparation of sodium salt for injectable formulation” (J Med Chem, 2003).
The source made the active and inactive calls. The rule behind the calls is not given here.

Columns and labels:
[1] = target: T1, Prostaglandin G/H synthase 1 (Ovis aries) (UniProt P05979); assay: In vitro inhibition of Prostaglandin G/H synthase 1 (from ram seminal vesicles) at a concentration of […]
T1 sequence (whole entry): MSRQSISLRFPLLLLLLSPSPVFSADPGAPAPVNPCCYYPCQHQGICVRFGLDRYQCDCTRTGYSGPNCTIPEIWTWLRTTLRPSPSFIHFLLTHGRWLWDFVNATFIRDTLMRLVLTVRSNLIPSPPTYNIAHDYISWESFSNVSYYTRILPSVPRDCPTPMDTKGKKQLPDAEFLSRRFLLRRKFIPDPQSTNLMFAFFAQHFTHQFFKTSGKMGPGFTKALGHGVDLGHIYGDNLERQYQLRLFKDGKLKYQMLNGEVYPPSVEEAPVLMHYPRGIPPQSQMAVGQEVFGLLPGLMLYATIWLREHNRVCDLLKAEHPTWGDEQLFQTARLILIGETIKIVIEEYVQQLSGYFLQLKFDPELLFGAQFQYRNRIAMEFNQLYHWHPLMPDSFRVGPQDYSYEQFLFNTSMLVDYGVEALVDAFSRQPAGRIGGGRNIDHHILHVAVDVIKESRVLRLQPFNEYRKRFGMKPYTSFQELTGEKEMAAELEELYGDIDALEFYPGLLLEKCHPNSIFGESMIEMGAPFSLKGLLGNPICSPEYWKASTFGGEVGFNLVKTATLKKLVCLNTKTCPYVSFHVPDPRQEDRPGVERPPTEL

Rattus norvegicus [2] = assay: Evaluated in vivo for antiinflammatory activity at 30 mg/kg oral dose in the carrageenan-induced rat paw edema (male Wistar rat); assay type: functional
Rattus norvegicus [3] = assay: Evaluated in vivo for oral dose required to produce antiinflammatory activity in the rat paw edema assay (male Wistar rat); assay type: functional
[4] = Partition coefficient (logP); assay type: physicochemical; conditions: octanol/water
[5] = Pharmacokinetic parameter Cmax was determined in male Wistar rat after 100 mg/kg oral dose of the compound; assay type: ADME, organism-based; design: dose 100 mg/kg, route oral; conditions: in vivo
[6] = Pharmacokinetic parameter AUC(area under curve) was determined in male Wistar rat after 100 mg/kg oral dose of the compound; assay type: ADME, organism-based; design: dose 100 mg/kg, route oral; conditions: in vivo
[7] = target: T2, Prostaglandin G/H synthase 1 (Ovis aries, UniProt P05979)
T2 sequence (P05979 whole entry): T1 sequence (whole entry)
Description: In vitro inhibition against Prostaglandin G/H synthase 1 from ram seminal vesicles

[8] = Pharmacokinetic parameter Tmax was determined in male Wistar rat after 100 mg/kg oral dose of the compound; assay type: ADME, organism-based; design: dose 100 mg/kg, route oral; conditions: in vivo
Rattus norvegicus [9] = assay: Evaluated in vivo for antiinflammatory activity at 30 mg/kg oral dose in the carrageenan-induced rat paw edema (male Wistar rat); Not active; assay type: functional, organism-based; design: dose 30 mg/kg

| SMILES | inhibition [1] [%] | inhibition in vivo at 30 mg/kg (Rattus norvegicus [2]) [%] | other results |
| --- | --- | --- | --- |
| CCCC(=O)NS(=O)(=O)c1ccc(-n2nc(C(F)(F)F)cc2-c2ccc(F)cc2)c(F)c1 | 0 | 22 |  |
| CCC(=O)NS(=O)(=O)c1ccc(-n2nc(C(F)(F)F)cc2-c2ccc(F)cc2)c(F)c1 | 0 | 38 |  |
| CCCC(=O)NS(=O)(=O)c1ccc(-n2nc(C(F)(F)F)cc2-c2ccc(OC)cc2)c(F)c1 | 32 | 42 |  |
| CCC(=O)[N-]S(=O)(=O)c1ccc(-n2nc(C(F)(F)F)cc2-c2ccc(OC)cc2)c(F)c1.[Na+] | 18 | 78 | ED50 (Rattus norvegicus [3]): 6 mg/kg |
| CSc1ccc(-c2cc(C(F)(F)F)nn2-c2ccc(S(N)(=O)=O)cc2F)cc1 | 29 | 33 | logP [4]: 3.81; Cmax [5]: 3210 ng/mL; AUC [6]: 6650 ng·h/mL; IC50 [7]: 24.3 µM; Tmax [8]: 1.26 h |
| COc1ccc(-c2cc(C(F)(F)F)nn2-c2ccc(S(N)(=O)=O)c(F)c2)cc1 | 0 | 52 | ED30 (Rattus norvegicus [3]): 1 mg/kg; ED50 (Rattus norvegicus [3]): 12.7 mg/kg; IC50 [7]: > 170 µM |
| CS(=O)(=O)c1ccc(C2=C(c3ccccc3)C(=O)OC2)cc1 [ROFECOXIB] |  | 37 | Cmax [5]: 5610 ng/mL; AUC [6]: 57900 ng·h/mL; Tmax [8]: 3 h |
| CC(=O)NS(=O)(=O)c1ccc(-n2nc(C(F)(F)F)cc2-c2ccc(F)cc2)c(F)c1 | 26 | 44 |  |
| COc1ccc(-c2cc(C(F)(F)F)nn2-c2ccc(S(=O)(=O)NC(=O)C(C)(C)C)cc2F)cc1 | 16 |  | inhibition (Rattus norvegicus [9]): inactive |
| CCC(=O)[N-]S(=O)(=O)c1ccc(-c2c(-c3ccccc3)noc2C)cc1.[Na+] [PARECOXIB SODIUM] |  |  | ED50 (Rattus norvegicus [3]): 5 mg/kg |
| CCCC(=O)[N-]S(=O)(=O)c1ccc(-n2nc(C(F)(F)F)cc2-c2ccc(C)cc2)cc1.[Na+] | 2 | 63 | ED50 (Rattus norvegicus [3]): 6.69 mg/kg |
| COc1ccc(-c2cc(C(F)(F)F)nn2-c2ccc(S(N)(=O)=O)c(C)c2)cc1 | 75 |  |  |
| Cc1ccc(-c2cc(C(F)(F)F)nn2-c2ccc(S(N)(=O)=O)cc2)cc1 [CELECOXIB] |  | 49 | logP [4]: 3.01; Cmax [5]: 2470 ng/mL; ED50 (Rattus norvegicus [3]): 7.9 mg/kg; AUC [6]: 23200 ng·h/mL; Tmax [8]: 3.25 h |
| CCC(=O)NS(=O)(=O)c1ccc(-n2nc(C(F)(F)F)cc2-c2ccc(SC)cc2)c(F)c1 |  | 37 |  |
| CCCC(=O)NS(=O)(=O)c1ccc(-n2nc(C(F)(F)F)cc2-c2ccc(SC)cc2)c(F)c1 | 34 | 40 |  |
| COc1ccc2c(c1)c(CC(=O)O)c(C)n2C(=O)c1ccc(Cl)cc1 | 100 |  |  |
| CCC(=O)NS(=O)(=O)c1ccc(-n2nc(C(F)(F)F)cc2-c2ccc(C)cc2)cc1 | 0 | 30 |  |
| COc1ccc(-c2cc(C(F)(F)F)nn2-c2ccc(S(N)(=O)=O)cc2F)cc1 | 13 | 26 | logP [4]: 3.14; Cmax [5]: 3300 ng/mL; AUC [6]: 46400 ng·h/mL; IC50 [7]: > 30 µM; Tmax [8]: 7.5 h |
| CC(=O)NS(=O)(=O)c1ccc(-n2nc(C(F)(F)F)cc2-c2ccc(C)cc2)cc1 | 10 | 27 |  |
